Test [1] concerns the target human JAK2 (Homo sapiens (Human), UniProt O60674). Conditions: read-out: JAK2 IC50.
Test [2] addresses human FAK (Homo sapiens (Human), UniProt Q05397). The conditions noted are these: read-out: FAK IC50.

For 30 molecules, IC50 results are on record in patent US8501936B2 (priority 2009, dated 2013).

Usually IC50 stands for the midpoint of a concentration-inhibition curve.

Chain of human JAK2 (O60674 815-1132): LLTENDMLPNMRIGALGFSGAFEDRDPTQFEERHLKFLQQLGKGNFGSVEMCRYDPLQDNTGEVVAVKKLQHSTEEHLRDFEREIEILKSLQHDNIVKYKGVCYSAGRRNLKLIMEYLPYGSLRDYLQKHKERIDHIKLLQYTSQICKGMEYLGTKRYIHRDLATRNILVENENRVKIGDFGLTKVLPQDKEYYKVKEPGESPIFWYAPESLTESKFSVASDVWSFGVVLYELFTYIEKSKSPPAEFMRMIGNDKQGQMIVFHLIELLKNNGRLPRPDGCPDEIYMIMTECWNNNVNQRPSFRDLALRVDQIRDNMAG
Chain of human FAK (Q05397 whole entry): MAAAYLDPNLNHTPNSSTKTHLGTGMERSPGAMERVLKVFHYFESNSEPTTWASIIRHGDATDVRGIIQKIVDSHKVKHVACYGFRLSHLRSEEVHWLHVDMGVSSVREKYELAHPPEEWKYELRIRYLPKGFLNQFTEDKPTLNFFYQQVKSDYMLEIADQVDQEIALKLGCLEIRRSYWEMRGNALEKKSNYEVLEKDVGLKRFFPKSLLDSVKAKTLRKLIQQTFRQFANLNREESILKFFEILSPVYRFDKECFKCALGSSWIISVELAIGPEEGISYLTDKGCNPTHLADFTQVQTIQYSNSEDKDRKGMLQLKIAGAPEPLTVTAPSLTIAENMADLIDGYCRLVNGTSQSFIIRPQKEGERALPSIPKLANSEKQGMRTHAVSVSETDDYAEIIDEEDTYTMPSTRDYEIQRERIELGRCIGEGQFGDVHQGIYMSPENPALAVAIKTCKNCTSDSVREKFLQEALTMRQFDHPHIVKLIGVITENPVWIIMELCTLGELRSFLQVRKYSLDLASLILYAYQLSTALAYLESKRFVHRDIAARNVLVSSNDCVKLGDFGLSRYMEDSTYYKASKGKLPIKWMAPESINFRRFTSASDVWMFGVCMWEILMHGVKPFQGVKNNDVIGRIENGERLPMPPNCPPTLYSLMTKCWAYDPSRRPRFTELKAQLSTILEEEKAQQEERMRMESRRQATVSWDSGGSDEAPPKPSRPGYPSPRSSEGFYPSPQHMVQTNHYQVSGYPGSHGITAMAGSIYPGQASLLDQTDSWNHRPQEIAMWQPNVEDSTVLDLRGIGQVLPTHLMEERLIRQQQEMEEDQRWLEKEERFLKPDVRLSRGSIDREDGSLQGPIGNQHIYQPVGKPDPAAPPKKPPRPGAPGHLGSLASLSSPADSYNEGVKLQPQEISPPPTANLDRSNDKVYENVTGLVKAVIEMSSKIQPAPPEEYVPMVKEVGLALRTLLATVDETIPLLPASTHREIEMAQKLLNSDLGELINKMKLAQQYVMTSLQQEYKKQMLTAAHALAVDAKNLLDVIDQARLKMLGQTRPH

Consider `COc1ccccc1-c1cccn2nc(Nc3cccc(N4CCN(C)CC4)c3)nc12` [Example 56, [8-(2-Methoxy-phenyl)-[1,2,4]triazolo[1,5-a]pyridin-2-yl]-[3-(4-methyl-piperazin-1-yl)-phenyl]-amine], for which the IC50 was found to be 0.0268 µM in test [1] and 3 µM in test [2].
On to `CS(=O)(=O)c1ccc(-c2cccn3nc(Nc4cccc(N5CCOCC5)c4)nc23)cc1` [Example 27, [8-(4-Methanesulfonyl-phenyl)-[1,2,4]triazolo[1,5-a]pyridin-2-yl]-(3-morpholin-4-yl-phenyl)-amine], for which the IC50 in test [1] was found to be 0.0004 µM; in test [2], 2.02 µM.
With `CS(=O)(=O)c1ccc(-c2cccn3nc(Nc4cnn(CCN5CCCC5)c4)nc23)cc1` [Example 219, [8-(4-Methanesulfonyl-phenyl)-[1,2,4]triazolo[1,5-a]pyridin-2-yl]-(1-(2-pyrrolidin-1-yl-ethyl)-1H-pyrazol-4-yl]-amine], the IC50 worked out at 0.0139 µM in test [1] and 10 µM in test [2].
Consider `COc1ccc(Nc2nc3c(NCc4ccccc4OC)cccn3n2)cn1` [Example 402, N(8)-(2-Methoxy-benzyl)-N(2)-(6-methoxy-pyridin-3-yl)-[1,2,4]triazolo[1,5-a]pyridine-2,8-diamine], for which the IC50 in test [1] amounted to 0.0427 µM; in test [2], 3 µM.
For `CS(=O)(=O)c1cccc(-c2cccn3nc(Nc4ccc(OCCN5CCCC5)cc4)nc23)c1` [Example 13, [8-(3-Methanesulfonyl-phenyl)-[1,2,4]triazolo[1,5-a]pyridin-2-yl]-[4-(2-pyrrolidin-1-yl-ethoxy)-phenyl]-amine], the IC50 in test [1] worked out at 0.003 µM; in test [2], 0.524 µM.
Take `CN1Cc2ccc(Nc3nc4c(C#Cc5ccccc5N(C)S(C)(=O)=O)cccn4n3)cc2C1` [Example 193, N-Methyl-N-{2-[2-(2-methyl-2,3-dihydro-1H-isoindol-5-ylamino)-[1,2,4]triazolo[1,5-a]pyridin-8-ylethynyl]-phenyl}-methanesulfonamide]: the concentration for half-maximal inhibition (IC50) in test [1] worked out at 0.0115 µM; in test [2], 3 µM.
Consider `COc1cccc(CNc2cccn3nc(Nc4ccc(N5CCN(C)CC5)cc4)nc23)c1` [Example 390, N(8)-(3-Methoxy-benzyl)-N(2)-[4-(4-methyl-piperazin-1-yl)-phenyl]-[1,2,4]triazolo[1,5-a]pyridine-2,8-diamine], for which the values for the IC50 in test [1] and in test [2] were 1.34 µM and 10 µM, respectively.
For `COc1ccccc1-c1cccn2nc(Nc3ccc(N4CCOCC4)cc3)nc12` [Example 2, [8-(2-Methoxy-phenyl)-[1,2,4]triazolo[1,5-a]pyridin-2-yl]-(4-morpholin-4-yl-phenyl)-amine], the IC50 in test [1] came out at 0.02 µM; in test [2], 6.5 µM.
On to `CC(=O)Nc1cccc(Nc2nc3c(-c4ccc(S(C)(=O)=O)cc4)cccn3n2)c1` [Example 267, N-{3-[8-(4-Methanesulfonyl-phenyl)-[1,2,4]triazolo[1,5-a]pyridin-2-ylamino]-phenyl}-acetamide], for which the IC50 in test [1] was 0.00343 µM; in test [2], 10 µM.
With `CP(C)(=O)c1ccc(-c2cccn3nc(N(CCS(C)(=O)=O)c4cccc(C5CCN(CCS(C)(=O)=O)CC5)c4)nc23)cc1` [Example 199, {8-[4-(Dimethyl-phosphinoyl)-phenyl]-[1,2,4]triazolo[1,5-a]pyridin-2-yl}-(2-methanesulfonyl-ethyl)-{3-[1-(2-methanesulfonyl-ethyl)-piperidin-4-yl]-phenyl}-amine], the results for the IC50 in test [1] and in test [2] were 0.0958 µM and 10 µM, respectively.
Take `COc1ncccc1-c1cccn2nc(Nc3ccc4ncccc4c3)nc12` [Example 274, [8-(2-Methoxy-pyridin-3-yl)-[1,2,4]triazolo[1,5-a]pyridine-2-yl]-quinolin-6-yl-amine]: the results for the IC50 in test [1] and in test [2] were 0.192 µM and 10 µM, respectively.
As to `COc1cccc(CNc2cccn3nc(Nc4cccc(N5CCN(C)CC5)c4)nc23)c1` [Example 392, N(8)-(3-Methoxy-benzyl)-N(2)-[3-(4-methyl-piperazin-1-yl)-phenyl]-[1,2,4]triazolo[1,5-a]pyridine-2,8-diamine], the IC50 in test [1] worked out at 3 µM; in test [2], 10 µM.
Take `CN1CCN(Cc2ccc(Nc3nc4c(-c5ccc(S(C)(=O)=O)cc5)cccn4n3)cc2)CC1` [Example 44, [8-(4-Methanesulfonyl-phenyl)-[1,2,4]triazolo[1,5-a]pyridin-2-yl]-[4-(4-methyl-piperazin-1-ylmethyl)-phenyl]-amine]: the IC50 came out at 0.0024 µM in test [1] and 1.13 µM in test [2].
Take `COc1ccc(C(F)(F)F)cc1-c1cccc2nc(Nc3ccc4c(c3)CCN(CC(=O)N(C)C)CC4)nn12` [Example 237]: the IC50 in test [1] stood at 0.0539 µM; in test [2], 0.714 µM.
As to `CN1CCN(Cc2ccc(Nc3nc4cccc(-c5cccc(S(C)(=O)=O)c5)n4n3)cc2)CC1` [Example 88, [5-(3-Methanesulfonyl-phenyl)-[1,2,4]triazolo[1,5-a]pyridin-2-yl]-[4-(4-methyl-piperazin-1-ylmethyl)-phenyl]-amine], the IC50 in test [1] stood at 0.0117 µM; in test [2] it was 1.03 µM.
Consider `CN1CCN(c2cccc(Nc3nc4c(-c5cccc(CN(C)S(C)(=O)=O)c5)cccn4n3)c2)CC1` [Example 176, N-Methyl-N-(3-{2-[3-(4-methyl-piperazin-1-yl)-phenylamino]-[1,2,4]triazolo[1,5-a]pyridin-8-yl}-benzyl)-methanesulfonamide], for which the figures for the IC50 in test [1] and in test [2] were 0.00594 µM and 3 µM, respectively.
Turning to `CCOc1ccc(C(F)(F)F)cc1-c1cccn2nc(Nc3ccc4c(c3)CCNCC4)nc12` [Example 319], the concentration for half-maximal inhibition (IC50) in test [1] worked out at 0.137 µM; in test [2], 1.31 µM.
On to `CS(=O)(=O)c1ccc(-c2cccn3nc(Nc4cccc(N5CCNCC5)c4)nc23)cc1` [Example 181, [8-(4-Methanesulfonyl-phenyl)-[1,2,4]triazolo[1,5-a]pyridin-2-yl]-(3-piperazin-1-yl-phenyl)-amine], for which the values for the IC50 in test [1] and in test [2] were 0.00097 µM and 1.13 µM, respectively.
With `CN1CCN(c2ccc(Nc3nc4c(NCc5cccc(N(C)S(C)(=O)=O)c5)cccn4n3)cc2)CC1` [Example 169, N-Methyl-N-[3-({2-[4-(4-methyl-piperazin-1-yl)-phenylamino]-[1,2,4]triazolo[1,5-a]pyridin-8-ylamino}-methyl)-phenyl]-methanesulfonamide], the IC50 in test [1] is 0.145 µM; in test [2], 6.5 µM.
Consider `CN1CCN(c2ccc(Nc3nc4c(Nc5cccnc5N(C)S(C)(=O)=O)cccn4n3)cc2)CC1` [Example 131, N-Methyl-N-(3-{2-[4-(4-methyl-piperazin-1-yl)-phenylamino]-[1,2,4]triazolo[1,5-a]pyridin-8-ylamino}-pyridin-2-yl)-methanesulfonamide], for which the IC50 in test [1] is 0.0114 µM; in test [2] it was 1.37 µM.
Take `COc1cc(F)ccc1-c1cccn2nc(Nc3ccc4c(c3)CCN(CC(=O)N(C)C)CC4)nc12` [Example 324, 2-{7-[8-(4-Fluoro-2-methoxy-phenyl)-[1,2,4]triazolo[1,5-a]pyridin-2-ylamino]-1,2,4,5-tetrahydro-3-benzazepin-3-yl}-N,N-dimethyl-acetamide]: the figures for the IC50 in test [1] and in test [2] were 0.047 µM and 3 µM, respectively.
On to `CN1CCN(c2ccc(Nc3nc4cccc(-c5cccc(S(C)(=O)=O)c5)n4n3)cc2)CC1` [Example 82, [5-(3-Methanesulfonyl-phenyl)-[1,2,4]triazolo[1,5-a]pyridin-2-yl]-[4-(4-methyl-piperazin-1-yl)-phenyl]-amine], for which the IC50 in test [1] was determined as 0.0092 µM; in test [2] it was 0.584 µM.
With `CS(=O)(=O)c1ccc(-c2cccn3nc(Nc4cccc(CN5CCOCC5)c4)nc23)cc1` [Example 46, [8-(4-Methanesulfonyl-phenyl)-[1,2,4]triazolo[1,5-a]pyridin-2-yl]-(3-morpholin-4-ylmethyl-phenyl)-amine], the IC50 in test [1] is 0.0006 µM; in test [2] it was 0.953 µM.
Take `COc1ccc(C(F)(F)F)cc1-c1cccn2nc(Nc3cccc(C4CCNCC4)c3)nc12` [Example 257, [8-(2-Methoxy-5-trifluoromethyl-phenyl)-[1,2,4]triazolo[1,5-a]pyridin-2-yl]-(3-piperidin-4-yl-phenyl)-amine]: the IC50 in test [1] was determined as 0.0289 µM; in test [2], 0.481 µM.
`CN1CCN(c2cccc(Nc3nc4c(-c5ccc(P(C)(C)=O)cc5)cccn4n3)c2)C(=O)C1` [Example 207, 1-(3-{8-[4-(Dimethyl-phosphinoyl)-phenyl]-[1,2,4]triazolo[1,5-a]pyridin-2-ylamino}-phenyl)-4-methyl-piperazin-2-one]: the IC50 turned out to be 0.0105 µM in test [1] and 10 µM in test [2].
As to `CN(C)C(=O)CN1CCc2ccc(Nc3nc4c(-c5cc(F)ccc5OCC(F)F)cccn4n3)cc2CC1` [Example 378, 2-(7-{8-[2-(2,2-Difluoro-ethoxy)-5-fluoro-phenyl]-[1,2,4]triazolo[1,5-a]pyridin-2-ylamino}-1,2,4,5-tetrahydro-3-benzazepin-3-yl)-N,N-dimethyl-acetamide], the IC50 is 0.52 µM in test [1] and 1.25 µM in test [2].
Consider `CS(=O)(=O)c1ccc(-c2cccc3nc(Nc4ccc(OCCN5CCCC5)cc4)nn23)cc1` [Example 73, [5-(4-Methanesulfonyl-phenyl)-[1,2,4]triazolo[1,5-a]pyridin-2-yl]-[4-(2-pyrrolidin-1-yl-ethoxy)-phenyl]-amine], for which the IC50 in test [1] worked out at 0.0021 µM; in test [2], 0.227 µM.
Take `FC(F)COc1ccc(C(F)(F)F)cc1-c1cccn2nc(Nc3ccc4c(c3)CCNCC4)nc12` [Example 328]: the IC50 came to 0.257 µM in test [1] and 0.999 µM in test [2].
As for `CC(C)(C)OC(=O)N1CCN(c2cccc(Nc3nc4c(-c5ccc(S(C)(=O)=O)cc5)cccn4n3)c2)CC1` [Example 179, 4-{3-[8-(4-Methanesulfonyl-phenyl)-[1,2,4]triazolo[1,5-a]pyridin-2-ylamino]-phenyl}-piperazine-1-carboxylic acid tert-butyl ester], the IC50 came to 0.00372 µM in test [1] and 10 µM in test [2].
`CN1CCN(c2ccc(NC(=O)Nc3nc4cccc(-c5cccc(S(C)(=O)=O)c5)n4n3)cc2)CC1` [Example 89, 1-[5-(3-Methanesulfonyl-phenyl)-[1,2,4]triazolo[1,5-a]pyridin-2-yl]-3-[4-(4-methyl-piperazin-1-yl)-phenyl]-urea]: the figures for the IC50 in test [1] and in test [2] were 0.23 µM and 8.83 µM, respectively.
